Results taken from PubChem BioAssay AID588719 (Southern Research Specialized Biocontainment Screening …, 2011).

Test system: Vero 76 cells viability, cytotoxicity counter-screen
Test: Vero 76 cell cytotoxicity, dose response, cytotoxicity control for VEEV inhibitor project (AID 588719)

**Q.** `COc1cc(/C=C/C(=O)/C=C(O)/C=C/c2ccc(O)c(OC)c2)ccc1O` was tested. Which CC50 did it give?
**A.** The CC50 was 19.9 µM.
